This is an account of results in ChEMBL document CHEMBL6109134, “Discovery of AMG 193, an MTA-Cooperative PRMT5 Inhibitor for the Treatment of MTAP-Deleted Cancers” (J Med Chem, 2025).

pIC50, pKi: −log10 of the molar value. Activity calls are given as the source filed them. The rule behind the calls is not given here.

The subject of one data set is U-87 MG. As to the kind of experiment: Antiproliferative activity against human U-87 MG cells assessed as effect on cell viability. The class given is functional, cell-based, U-87MG ATCC.
The target of data set [1] is Voltage-gated inwardly rectifying potassium channel KCNH2 (Homo sapiens, UniProt Q12809). As to the kind of experiment: Inhibition of human ERG by binding assay.
Sequence of Voltage-gated inwardly rectifying potassium channel KCNH2 (Q12809 whole entry): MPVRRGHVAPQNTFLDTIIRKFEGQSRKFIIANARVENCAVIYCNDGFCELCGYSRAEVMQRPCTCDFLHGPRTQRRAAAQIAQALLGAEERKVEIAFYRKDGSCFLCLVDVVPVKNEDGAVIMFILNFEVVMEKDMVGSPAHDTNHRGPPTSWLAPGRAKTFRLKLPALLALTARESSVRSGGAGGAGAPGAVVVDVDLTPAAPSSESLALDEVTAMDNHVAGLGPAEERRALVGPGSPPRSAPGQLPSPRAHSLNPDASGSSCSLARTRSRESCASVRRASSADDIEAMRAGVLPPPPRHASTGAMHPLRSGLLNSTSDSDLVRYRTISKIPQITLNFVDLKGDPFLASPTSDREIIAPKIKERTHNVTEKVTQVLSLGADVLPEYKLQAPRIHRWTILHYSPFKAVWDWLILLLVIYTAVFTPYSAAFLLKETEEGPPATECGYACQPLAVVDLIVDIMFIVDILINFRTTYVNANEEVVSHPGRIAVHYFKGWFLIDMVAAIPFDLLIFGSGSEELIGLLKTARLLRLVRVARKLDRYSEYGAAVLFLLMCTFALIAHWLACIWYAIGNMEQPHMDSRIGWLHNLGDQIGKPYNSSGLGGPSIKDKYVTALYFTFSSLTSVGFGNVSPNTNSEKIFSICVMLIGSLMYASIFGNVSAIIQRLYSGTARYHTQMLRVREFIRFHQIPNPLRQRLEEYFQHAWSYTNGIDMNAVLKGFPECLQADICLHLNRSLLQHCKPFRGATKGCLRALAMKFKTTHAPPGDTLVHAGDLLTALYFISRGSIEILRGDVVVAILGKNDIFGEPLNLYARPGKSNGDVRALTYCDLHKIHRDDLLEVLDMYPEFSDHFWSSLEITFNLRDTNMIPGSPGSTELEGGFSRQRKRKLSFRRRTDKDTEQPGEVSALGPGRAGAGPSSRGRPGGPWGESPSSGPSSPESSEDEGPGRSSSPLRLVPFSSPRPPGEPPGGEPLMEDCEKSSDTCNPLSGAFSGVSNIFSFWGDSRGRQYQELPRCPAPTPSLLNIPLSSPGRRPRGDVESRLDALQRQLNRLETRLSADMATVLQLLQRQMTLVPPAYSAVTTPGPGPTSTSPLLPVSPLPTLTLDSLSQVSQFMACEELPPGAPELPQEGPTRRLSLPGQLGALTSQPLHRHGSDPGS
A short description of data set [2]: Metabolic stability in dog liver microsomes assessed as intrinsic clearance. It counts as ADME, Canis lupus familiaris, Microsome. The settings on record: read-out: CLH.
Data set [3] can be described thus: Metabolic stability in human hepatocytes assessed as intrinsic clearance measured per 10^6 cells. It counts as ADME, cell-based, Hepatocyte. The note with it: read-out: CLH.
Data set [4] in a line: Metabolic stability in dog hepatocytes assessed as intrinsic clearance measured per 10^6 cells. It counts as ADME, cell-based, Canis lupus familiaris, Hepatocyte. The note with it: read-out: CLH.
A short description of data set [5]: Protein binding in dog plasma assessed as unbound fraction by ultracentrifugation.
Data set [6] can be described thus: Unbound clearance in Sprague-Dawley rat at 0.5 mg/kg, iv. The class given is ADME, organism-based. The note with it: in vivo.
A short description of data set [7]: Unbound clearance in Beagle dog at 0.5 mg/kg, iv. The class given is ADME, organism-based, Canis lupus familiaris. The settings on record: in vivo.
The target of data set [8] is Protein arginine N-methyltransferase 5 (Homo sapiens) (UniProt O14744). As to the kind of experiment: Selectivity ratio of dissociation rate for binding affinity to PRMT5 (unknown origin) in presence of SAM to dissociation rate for binding affinity to PRMT5 (unknown origin) in presence of MTA.
Sequence of Protein arginine N-methyltransferase 5 (Homo sapiens) (O14744 whole entry): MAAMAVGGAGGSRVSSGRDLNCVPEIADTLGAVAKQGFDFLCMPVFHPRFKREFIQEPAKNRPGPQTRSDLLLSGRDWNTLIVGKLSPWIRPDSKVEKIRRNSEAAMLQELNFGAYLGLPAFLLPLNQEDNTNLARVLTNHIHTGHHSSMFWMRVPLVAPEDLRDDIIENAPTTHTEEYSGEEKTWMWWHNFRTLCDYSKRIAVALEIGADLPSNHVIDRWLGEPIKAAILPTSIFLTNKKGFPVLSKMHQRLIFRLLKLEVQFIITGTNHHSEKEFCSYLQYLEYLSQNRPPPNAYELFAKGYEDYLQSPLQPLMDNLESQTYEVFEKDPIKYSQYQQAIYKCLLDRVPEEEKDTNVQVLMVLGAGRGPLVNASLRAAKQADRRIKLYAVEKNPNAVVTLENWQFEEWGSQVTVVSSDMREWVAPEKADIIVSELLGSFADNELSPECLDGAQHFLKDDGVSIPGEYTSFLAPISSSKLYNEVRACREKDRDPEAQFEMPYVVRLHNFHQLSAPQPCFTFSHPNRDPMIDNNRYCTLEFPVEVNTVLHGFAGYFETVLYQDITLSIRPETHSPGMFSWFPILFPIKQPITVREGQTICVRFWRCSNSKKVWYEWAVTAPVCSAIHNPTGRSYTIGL
Data set [9] in a line: Mutagenicity in Salmonella typhimurium by Ames test. It counts as toxicity. The settings on record: salmonella enterica subsp. enterica serovar typhimurium.
Data set [10] is described as follows: Passive permeability in MDCK-II cells at 0.1 to 10 uM. The class given is ADME, cell-based, Canis lupus familiaris. The settings on record: dog, dose 0.1-10 µM, read-out: permeability.
Data set [11] addresses Protein arginine N-methyltransferase 5 (Homo sapiens) (UniProt O14744). As to the kind of experiment: In vivo inhibition of PRMT5 in athymic nude mouse xenografted with human HCT-116 cells harboring wildtype MTAP assessed as decrease in SDMA level in tumor at 30 mg/kg, po administered once daily for 4 days and measured 4 hrs post last dose by ELISA relative to control. The class given is functional, organism-based. The settings on record: time 4.0 day.

For data set [12] the target is unchanged. As to the kind of experiment: In vivo inhibition of PRMT5 in athymic nude mouse xenografted with human HCT-116 cells harboring wildtype MTAP assessed as decrease in SDMA level in tumor at 100 mg/kg, po administered once daily for 4 days and measured 4 hrs post last dose by ELISA relative to control. It counts as functional, organism-based. The settings on record: time 4.0 day.

The target is the same in data set [13]. As to the kind of experiment: In vivo inhibition of PRMT5 in athymic nude mouse xenografted with MTAP-deleted human HCT-116 cells assessed as decrease in SDMA level in tumor at 100 mg/kg, po administered once daily for 4 days and measured 4 hrs post last dose by ELISA relative to control. It counts as functional, organism-based. The settings on record: time 4.0 day.

A further data set concerns HCT-116. As to the kind of experiment: Antitumor activity against human HCT-116 cells harboring wildtype MTAP xenografted in female athymic nude mouse model assessed as tumor growth inhibition at 3 to 100 mg/kg, po administered once daily for 14 days. The settings on record: dose 3-100 mg/kg, time 14.0 day. The class given is functional, organism-based.
The next data set has as its system BXPC-3. As to the kind of experiment: Antitumor activity against MTAP-deleted human BXPC-3 cells xenografted in athymic nude mouse model assessed as tumor growth inhibition at 100 mg/kg, po administered once daily for 26 days and measured 24 hrs post last dose relative to control. The class given is functional. The note with it: BXPC-3, 648 h, time 27 day, read-out: TGI.

Data set [14] deals with Protein arginine N-methyltransferase 5 (Homo sapiens) (UniProt O14744). As to the kind of experiment: In vivo inhibition of PRMT5 in female athymic nude mouse xenografted with MTAP-deleted human U-87 MG cells assessed as decrease in SDMA level in tumor at 100 mg/kg, po administered once daily for 14 days and measured 2 to 8 hrs post last dose by ELISA relative to control. The note with it: time 338-344 hrs. The class given is functional, organism-based.

For another data set, the target named is PRMT5/MEP50 complex (Homo sapiens, UniProt O14744).
Sequence of PRMT5/MEP50 complex (O14744 whole entry): as above
Sequence of PRMT5/MEP50 complex (Q9BQA1 whole entry, further chain): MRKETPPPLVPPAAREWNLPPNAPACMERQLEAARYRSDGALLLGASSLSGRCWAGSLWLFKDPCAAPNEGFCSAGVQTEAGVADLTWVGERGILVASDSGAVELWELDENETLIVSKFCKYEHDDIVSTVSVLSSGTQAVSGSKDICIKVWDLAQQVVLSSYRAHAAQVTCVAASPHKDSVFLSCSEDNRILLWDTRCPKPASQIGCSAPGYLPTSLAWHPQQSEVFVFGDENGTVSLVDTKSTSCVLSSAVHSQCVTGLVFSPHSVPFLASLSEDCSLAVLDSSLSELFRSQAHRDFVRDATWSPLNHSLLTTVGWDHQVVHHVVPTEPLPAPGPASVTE

Description for PRMT5/MEP50 complex: Inhibition of PRMT5/MEP50 (unknown origin) preincubated with compound for 24 hrs in presence of SAM and MTA followed by Histone H4 (1-21)-Lys(Biotin) peptide addition and measured after 2 hrs by MTase-Glo reagent based assay

As for `Nc1nc2cnc(C(=O)N3CCOC[C@@H]3c3ccc(C(F)(F)F)cc3)cc2c2c1COC2`, the pIC50 with U-87 MG was 6.45; in [1] it was less than 4.54. Besides, the microsomal CLint in [2] stood at 14 µL/min/mg. The hepatocyte CLint in [3] worked out at 6 µL/min/1e6 cells; in data set [4], 5 µL/min/1e6 cells. Further, the fraction unbound in data set [5] amounted to 0.08. Besides, the figures for the CL free in data set [6] and in [7] were 283 mL/min/kg and 50 mL/min/kg, respectively. For the same molecule, the Selectivity ratio in data set [8] turned out to be 60. In addition, the Activity result in data set [9] was “Non-toxic”. Besides, the Papp at up to 10 µM in data set [10] turned out to be 33 ×10⁻⁶ cm/s. The inhibition in data set [11] turned out to be 48%; in [12], 79%; in data set [13], 71%; in data set [14], 83%. Further, the outcome with HCT-116 was inactive. The inhibition in vivo at 100 mg/kg in the data set with BXPC-3 came to 96%. Besides, the pKi on PRMT5/MEP50 complex is more than 10.00.
